We go through four compounds from ChEMBL document CHEMBL1135433 (J Med Chem, 2002).

pIC50: −log10 of the molar value.

This assay in a line: Concentration required for 50% inhibition of Shiga-like toxin type 1 (Stx1A1).

As for `Nc1nc(O)c2nc(CNc3ccc(C(=O)O)cc3)cnc2n1` [PTEROIC ACID], the pIC50 (commonly the IC50 on a negative log10 scale, so that one unit is a factor of ten) is 3.22.

As to `Nc1nc2c(c(=O)[nH]1)CC=N2`, the negative-log IC50 (pIC50) was 2.70.

For the compound `Cc1cc2c(O)[nH]c(N)nc-2n1`, the pIC50 was 2.37.

Take `Cc1nc2c(=O)[nH]c(N)nc2o1`: the pIC50 is 3.00.
